From ChEMBL document CHEMBL1139489, “Design and NMR characterization of active analogues of compstatin containing non-natural amino acids” (J Med Chem, 2005) come the findings set out here.

SMILES strings stand for the structures.

The experiment deals with Complement C3 (Homo sapiens, UniProt P01024). Description: Inhibitory concentration for human complement component C3 activation.
Sequence of Complement C3 (P01024 23-667 limits assumed): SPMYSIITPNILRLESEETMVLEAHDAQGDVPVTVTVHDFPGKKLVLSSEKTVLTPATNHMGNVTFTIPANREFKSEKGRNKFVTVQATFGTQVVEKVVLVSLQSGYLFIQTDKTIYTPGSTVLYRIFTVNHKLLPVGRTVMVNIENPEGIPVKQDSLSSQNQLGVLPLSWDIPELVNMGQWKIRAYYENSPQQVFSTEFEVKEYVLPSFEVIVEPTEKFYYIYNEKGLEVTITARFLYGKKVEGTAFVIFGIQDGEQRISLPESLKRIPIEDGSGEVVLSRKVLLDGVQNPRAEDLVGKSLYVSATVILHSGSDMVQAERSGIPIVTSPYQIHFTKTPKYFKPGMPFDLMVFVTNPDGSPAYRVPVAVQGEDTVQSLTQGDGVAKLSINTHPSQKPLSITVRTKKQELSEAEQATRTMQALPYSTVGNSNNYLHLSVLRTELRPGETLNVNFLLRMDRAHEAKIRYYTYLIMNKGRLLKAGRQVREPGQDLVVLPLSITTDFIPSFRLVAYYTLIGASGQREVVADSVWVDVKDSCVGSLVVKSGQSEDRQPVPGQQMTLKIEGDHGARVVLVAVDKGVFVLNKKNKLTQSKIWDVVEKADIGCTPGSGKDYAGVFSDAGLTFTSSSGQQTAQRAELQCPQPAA
Sequence of Complement C3 (P01024 672-1663 limits assumed): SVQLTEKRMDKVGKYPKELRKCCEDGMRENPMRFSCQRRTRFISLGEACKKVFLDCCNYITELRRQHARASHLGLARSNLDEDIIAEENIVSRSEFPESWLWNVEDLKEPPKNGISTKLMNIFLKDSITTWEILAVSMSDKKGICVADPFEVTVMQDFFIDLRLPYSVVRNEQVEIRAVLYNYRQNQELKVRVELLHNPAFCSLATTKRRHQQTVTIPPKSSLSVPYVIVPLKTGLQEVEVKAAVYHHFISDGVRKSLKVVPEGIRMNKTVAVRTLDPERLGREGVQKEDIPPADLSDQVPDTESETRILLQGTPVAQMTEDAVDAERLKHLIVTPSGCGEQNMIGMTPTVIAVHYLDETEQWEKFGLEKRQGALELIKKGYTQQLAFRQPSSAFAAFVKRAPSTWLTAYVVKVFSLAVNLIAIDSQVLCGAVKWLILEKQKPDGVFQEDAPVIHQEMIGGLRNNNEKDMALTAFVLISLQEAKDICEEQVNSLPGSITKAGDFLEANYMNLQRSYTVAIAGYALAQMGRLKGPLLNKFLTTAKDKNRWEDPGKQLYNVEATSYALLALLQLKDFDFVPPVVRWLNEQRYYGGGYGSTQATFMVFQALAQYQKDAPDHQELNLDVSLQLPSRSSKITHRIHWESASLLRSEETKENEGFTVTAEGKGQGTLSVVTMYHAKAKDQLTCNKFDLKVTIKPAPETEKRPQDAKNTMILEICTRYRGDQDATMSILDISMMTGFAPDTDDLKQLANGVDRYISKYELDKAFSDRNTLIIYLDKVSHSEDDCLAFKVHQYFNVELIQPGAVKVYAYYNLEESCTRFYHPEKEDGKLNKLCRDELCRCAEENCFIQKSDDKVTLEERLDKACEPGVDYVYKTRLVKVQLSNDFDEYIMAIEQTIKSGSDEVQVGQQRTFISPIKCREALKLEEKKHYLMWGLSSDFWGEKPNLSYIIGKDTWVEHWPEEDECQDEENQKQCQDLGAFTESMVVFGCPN
The term IC50 denotes the point on the concentration scale where inhibition reaches its midpoint. In turn, `CC[C@H](C)[C@H](NC(C)=O)C(=O)N[C@H]1CSSC[C@@H](C(=O)N[C@H](C(N)=O)[C@@H](C)O)NC(=O)[C@H](CCCNC(=N)N)NC(=O)[C@H](Cc2c[nH]cn2)NC(=O)[C@H](C)NC(=O)CNC(=O)[C@H](Cc2c[nH]c3ccccc23)NC(=O)[C@H](CC(=O)O)NC(=O)[C@H](CCC(N)=O)NC(=O)[C@H](Cc2ccc3ccccc3c2)NC(=O)[C@H](C(C)C)NC1=O` gave an IC50 of 0.5 µM. Take `CC[C@H](C)[C@H](NC(=O)[C@@H]1CSSC[C@H](NC(=O)[C@@H](NC(C)=O)[C@@H](C)CC)C(=O)N[C@@H](C(C)C)C(=O)N[C@H](Cc2ccc(O)cc2)C(=O)N[C@@H](CCC(N)=O)C(=O)N[C@@H](CC(=O)O)C(=O)N[C@@H](Cc2c[nH]c3ccccc23)C(=O)NCC(=O)N[C@@H](C)C(=O)N[C@@H](Cc2c[nH]cn2)C(=O)N[C@@H](CCCN=C(N)N)C(=O)N1)C(N)=O`: the IC50 was greater than 1000 µM. Under `CC[C@H](C)[C@H](NC(C)=O)C(=O)N[C@H]1CSSC[C@@H](C(=O)N[C@H](C(=O)O)[C@@H](C)O)NC(=O)[C@H](CCCN=C(N)N)NC(=O)[C@H](Cc2c[nH]cn2)NC(=O)[C@H](C)NC(=O)CNC(=O)[C@H](Cc2c[nH]c3ccccc23)NC(=O)[C@H](CC(=O)O)NC(=O)[C@H](CCC(N)=O)NC(=O)[C@H](Cc2cccc3ccccc23)NC(=O)[C@H](C(C)C)NC1=O` stands 1.8 µM; under `CC[C@H](C)[C@H](NC(C)=O)C(=O)N[C@H]1CSSC[C@@H](C(=O)N[C@H](C(N)=O)[C@@H](C)O)NC(=O)[C@H](CCCNC(=N)N)NC(=O)[C@H](Cc2cnc[nH]2)NC(=O)[C@H](Cc2c[nH]c3ccccc23)NC(=O)CNC(=O)[C@H](Cc2c[nH]c3ccccc23)NC(=O)[C@H](CC(=O)O)NC(=O)[C@H](CCC(N)=O)NC(=O)[C@H](Cc2c[nH]c3ccccc23)NC(=O)[C@H](C(C)C)NC1=O`, 3.1 µM.
